Measurements from article PMC4493534 (Theranostics, 2015).

Tests used:
TSPO [1] = target: TSPO (Rattus norvegicus, UniProt P16257); conditions: ischemic rat brain, previously published data; cited from earlier work
TSPO [2] = assay: In vitro autoradiography of postmortem human brain; type: binding; conditions: postmortem human temporal cortex sections, 0.5 nM radioligand

Chain of TSPO (Rattus norvegicus, UniProt P16257) (P16257 whole entry): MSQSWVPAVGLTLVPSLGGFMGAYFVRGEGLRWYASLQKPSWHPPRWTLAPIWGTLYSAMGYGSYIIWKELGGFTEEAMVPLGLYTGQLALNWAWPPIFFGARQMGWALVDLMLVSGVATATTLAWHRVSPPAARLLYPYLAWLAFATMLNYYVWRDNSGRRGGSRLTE

CC[C@@H](C)N([11CH3])C(=O)c1cc2ccccc2c(-c2ccccc2Cl)n1 [(R)[^11C]PK11195]
apparent BPND (SRTM) (TSPO [1]): 1.59 ± 0.33

COc1ccc(O[11CH3])c(CN(C(C)=O)c2cc(F)ccc2Oc2ccccc2)c1 [[^11C]DAA1106]
binding ratio for HAB-1 to that of LAB-1, RB(H/L) (also printed RB(L/H)) (TSPO [2]): ~1.19

CCN(Cc1ccccc1)C(=O)Cn1c(=O)n(C)c2cnc(-c3ccccc3)nc21 [[^11C]AC-5216]
binding ratio for HAB-1 to that of LAB-1, RB(H/L) (also printed RB(L/H)) (TSPO [2]): ~4.60
